Test results reported in patent publication US10975116B2, “Methods of treating and preventing gastrointestinal motility disorders using aminosterols” (Enterin, Inc., priority 2013, dated 2021).
Entries after “also recorded” stand apart in the source; their conditions may differ.

Experiments:
endometrial cancer = assay: Oral squalamine in endometrial cancer, single subject; assay type: in vivo, human
Protocol: A person presented with abdominal discomfort and the presence of a palpable abdominal mass. […] Surgical removal of the uterus and ovaries was followed by chemotherapy. Subsequently, a large tumor adherent to the distal colon was discovered, along with additional nodes. A colonic resection was performed along with local radiation to the peritoneum.
The individual decided to stop all chemotherapy due to progression of the cancer and the adverse reactions previously experienced. The subject began oral squalamine in capsule form in August 2012. […] The dose of squalamine was raised to 100 mg/day in two divided doses. In October 2013, the tumor adjacent to the ureter was irradiated. […] The individual remains on squalamine 100 mg/day. They are in otherwise excellent health.

lymphoma = assay: Oral squalamine in lymphoma, single subject; assay type: in vivo, human
Protocol: A person with a 2 year history of progressive dementia and weakness presented with a massive cervical, axillary, and inguinal lymphadenopathy, along with malaise, somnolence and pain. […] The skin of their feet was a nonblanching bright pink hue up to the ankle with a scattered brownish purpuric rash. The individual was provided end of life care.
At the end of December 2013, the individual was begun on a daily dose of one 50 mg capsule of squalamine. […] Rash cleared within 3 days. On day 4 after squalamine initiation, a short course of dexamethsone was begun to treat the hypercalcemia, and stimulate appetite. 20 mg (4 days), 16 mg (2 days), 8 mg, 4 mg (2 days), then 2 mg daily. […] Mid-January 2014 weakness on the right, involving arm and leg was noted; a diagnosis of a mild stroke was made. […] A flat left submandibular node was felt of normal size and consistency. […] Squalamine treatment continues.

GLP-1 = GLP-1 release into the blood stream after oral squalamine and lipid/carbohydrate meal (ELISA); assay type: in vivo, human
Protocol: Enteroendocrine cells, which contain entreric hormones, are known to respond to a variety of stimuli they contact in the intestinal lumen, and release hormones into the submucosa and subsequently into the bloodstream. In particular, GLP-1, the product of the L-cell, is known to have motility effects on the small intestine that resemble those observed after oral administration of squalamine. In this example, a lipid/carbohydrate meal was administered which is known to provoke the release of GLP-1 into the bloodstream. The GLP-1 response of the GI tract to the meal was compared in the presence or absence of squalamine, with blood levels of GLP-1 measured using an ELISA based immunoassay.
• 1. Subject (BMI: […], no medical illness) was fasted overnight • 2. IV catheter 18 gauge implanted in R […] fossa • 3. Blood samples drawn at 9:30 A, 11 A, 11:30 A, 12:30 P, 1:30 P, 2 P, 2:30, 3, 3:30, 4:30, 5:30 • 4. Empty capsule and water at 10:30 A • 5. Lipid/carbohydrate meal (2 slices of white bread, each with 5.5 gms butter) at 2 P • 6. Blood samples: 2 ml into Becton-Dickenson Protease-inhibited Biomarker tubes; 3 ml into standard red top blood collection tubes. • 7. All samples were immediately spun at 3000 rpm×15 and serum or plasma aliquotted into 1.5 ml eppendorfs and then stored at −80° C. Squalamine Response • 1. Subject rested 3 days and re-evaluated 4 days after the Control response • 2. Fasted overnight • 3. IV catheter implanted • 4. Samples drawn at 10, 11, 11:30, 12:30, 1:30, 2:30, 3, 3:30, 4:30, 5:30 • 5. Squalamine capsule, 200 mg at 10:30 A • 6. Bread and butter, 2 P • 7. Blood samples collected and processed as in the Control study
GLP-1 analyses (Total immunoreactive GLP-1): A Millipore ELISA kit was used (Cat #EZGLP1T-36K).

[1] = Recovery of squalamine from stool after oral dose (thin layer chromatography); assay type: in vivo, human; conditions: 200 mg oral; all stool collected for 6 days; 60% acetonitrile/1% HCl extraction
Protocol: 200 mg of squalamine was administered to a human […] as in the first example. All stool was collected for 6 days following administration. Stool was then extracted with 60% acetonitrile and 1% HCl overnight. The supernatant was collected and the presence of squalamine assessed by thin layer chromatography following published procedures. Approximately 80% of the dose could be recovered from the stool.

[2] = tested on: N-terminally acetylated alpha-synuclein bound to DOPE/DOPS/DOPC vesicles; assay: Displacement of alpha-synuclein from negatively charged vesicles (circular dichroism); assay type: binding
Protocol: Alpha-synuclein was mixed with a preparation of vesicles consisting of DOPE (50%), DOPS (30%), DOPC (20%). The concentration of lipid was 2.4 mM; the concentration of N-terminally acetylated alpha-synuclein was 10 μM. The interaction was followed by circular dichoroism. The concentration of squalamine was increased in 40 μM increments. […] At a ratio of lipid to squalamine of 15:1, full displacement of alpha-synuclein was observed. Addition of squalamine to a solution of alpha-synuclein alone had no effect on the circular dichroism spectrum.

gliobastoma = assay: Oral squalamine in brain tumor, single subject; assay type: in vivo, human
Protocol: A person presented with headache and memory loss. […] The tumor was partially resected surgically, followed by local radiation. The subject was placed on a clinical protocol evaluating everolimus and temozolimide.
In mid October 2013, the subject began squalamine capsules with a 100 mg single dose. […] Squalamine treatment continues.

[3] = tested on: intrinsic primary afferent neurons (IPANs) of the colon; assay: Patch-clamp of IPANs of the colon, epithelial lining peeled away; assay type: cell-based, mouse
Protocol: In this Example the same procedure as that described in Example 12 was followed except that the epithelial lining of the colon was peeled away prior to application of squalamine to the lumen. Signals from individual IPANs were recorded. Concentrations of squalamine as low as 1 uM could now stimulate a robust response, similar quantitatively (and qualitatively) to concentrations 30-100 fold higher, when an intact epithelium was present.

squalamine
PET/CT, metastases (endometrial cancer; 100 mg/day in two divided doses, February 2013 as printed): no additional metasteses were observed | tumor status (endometrial cancer; July 2013, before dose raised to 100 mg/day): a small tumor appeared adjacent to the right ureter, and a second attached to the left descending colon | PET/CT imaging (endometrial cancer; oral capsules from August 2012, by March 2013): no evidence of malignancy was visible | physical examination of nodes (lymphoma; 50 mg daily from end of December 2013, end of February 2014): no palpable cervical nodes | lymph node size (lymphoma; 50 mg daily, by 1 week, dexamethsone from day 4): marked reduction in the size of the nodes | clinical chemistry, polyclonal immunoglobulins (lymphoma; 50 mg daily, repeat study): complete resolution of the polyclonal gammopathy | rash cleared (lymphoma; one 50 mg capsule daily): ≤ 3 days | bowel function (lymphoma; one 50 mg capsule daily, previously constipated): bowels began to move | Squalamine Response: Clinical (GLP-1; 200 mg capsule at 10:30 A, light headedness 11 A-12:15, nausea 1:45, diarrhea 2 P, 2:20, 2:36, 3:15): Episodes of light headedness; also recorded: Episode of mild nausea; also recorded: Passage of watery diarrhea | effect on the release of GLP-1 from the small intestine (GLP-1; 200 mg oral versus empty capsule, same subject): No significant effect | GLP-1 blood level (GLP-1; blood sample at 1:30, 200 mg capsule at 10:30 A, meal at 2 P): 9 pM | GLP-1 blood level (GLP-1; blood sample at 2:30, 200 mg capsule at 10:30 A, meal at 2 P): 8 pM | GLP-1 blood level (GLP-1; blood sample at 3:00, 200 mg capsule at 10:30 A, meal at 2 P): 8 pM | GLP-1 blood level (GLP-1; blood sample at 3:30, 200 mg capsule at 10:30 A, meal at 2 P): 6 pM | GLP-1 blood level (GLP-1; blood sample at 4:30, 200 mg capsule at 10:30 A, meal at 2 P): 5 pM | GLP-1 blood level (GLP-1; blood sample at 5:30, 200 mg capsule at 10:30 A, meal at 2 P): 3 pM | GLP-1 blood level (GLP-1; blood sample at 10 (before 200 mg capsule at 10:30 A), total immunoreactive GLP-1): 6 pM | GLP-1 blood level (GLP-1; blood sample at 11:30, 200 mg capsule at 10:30 A, meal at 2 P): 4 pM | GLP-1 blood level (GLP-1; blood sample at 11, 200 mg capsule at 10:30 A, meal at 2 P): 5 pM | GLP-1 blood level (GLP-1; blood sample at 12:30, 200 mg capsule at 10:30 A, meal at 2 P): 10 pM | dose recovered from the stool [1]: Approximately 80% | amount of alpha-synuclein membrane bound with increasing squalamine ([2]; lipid 2.4 mM, alpha-synuclein 10 μM, squalamine in 40 μM increments): linear decrease | effect on circular dichroism spectrum of alpha-synuclein alone ([2]; no vesicles): no effect | decrease of tumor mass by MRI (gliobastoma; 100 mg from mid October 2013, with everolimus and temozolimide protocol, early December 2013): about 20% | residual tumor volume relative to volume after the surgery/radiation (gliobastoma; 100 mg, beginning of February 2014): 60% | lowest concentration stimulating a robust IPAN response ([3]; epithelial lining peeled away): 1 µM | fold higher concentrations needed for similar response when an intact epithelium was present ([3]; intact versus stripped epithelium): 30-100 fold
